The text below walks through data of patent publication US20260224632A1, “USE OF A COMPOSITION COMPRISING A NEO-SYNTHESIZED EXTRACELLLAR MATRIX FOR THE TREATMENT OF CANCER, IN PARTICULAR FOR THE INHIBITION OF CANCER VIABILITY, MIGRATION, AND PROLIFERATION” (NOVADIP BIOSCIENCES, priority 2023, published 2026).

Each structure is given as a SMILES string.

Series [1] relates to adult human dermal fibroblasts (HDFa). Kind of series: CCK-8 viability assay. The format is cell-based. Particulars: HDFa (non-tumor); 72 h; NVDM2 7 and 15 mg per well; doxorubicin 0.1 uM. As to the method: (§1) Doxorubicin (0.1 uM) was used as a positive control treatment and gelatin beads alone were used for comparison with NVDM2 treatment. All treatments were carried out in 96-well plates in transwells. The compositions of the invention (NVDM2) were administered in two different doses: 7 mg and 15 mg per well. The viability was measured using CCK-8 viability bioassay at 72 hours after administration. […] Data represent the mean±s.d. values of % cell viability upon treatment normalized to the respective untreated sample. Blue line represents 100% of viability. Statistical significances between treated vs untreated samples at the respective time point were tested by ANOVA-I. *, p≤0.05; **; p≤0.01, ***; p≤0.001; ns, not significant. Blue dots: values of individual batches (biological replicates). Each chart represents the average value of the data from all batches tested. DS: lyophilized non irradiated powder of NVDM2; DP: lyophilized powder of NVDM2 after irradiation.
(§2) For this assay the Cell Counting Kit-8 Kit was used (Sigma-Aldrich). […] This coloured product (formazan) is measured using a spectrophotometer. […]
(§3) After O/N incubation, the medium was removed, and the cells were incubated for 72 h in the presence of the different doses of the test item. […] The plate was incubated at 37° C. for 2 hour and then absorbance at 450 nm was measured.
(In general: Tetrazolium assays rely on reduction of a dye to a coloured formazan, in cell work by metabolically active cells.)

The subject of series [2] is human bone marrow mesenchymal stem cells (hBM-MSCs). The series can be described thus: CCK-8 viability assay. The format is cell-based. The settings on record: hBM-MSCs (non-tumor); 72 h; NVDM2 7 and 15 mg per well; doxorubicin 0.1 uM. As to the method: as §1, §2, §3

As to `COc1cccc2c1C(=O)c1c(O)c3c(c(O)c1C2=O)C[C@@](O)(C(=O)CO)C[C@@H]3O[C@H]1C[C@H](N)[C@H](O)[C@H](C)O1` [doxorubicin, Doxorubicin], the “% cell viability normalized to untreated (CCK-8)” value in series [1] and in series [2] was “significant inhibitory impact” each time.
